The source of these data is ChEMBL document CHEMBL3817805, “Benzamide capped peptidomimetics as non-ATP competitive inhibitors of CDK2 using the REPLACE strategy” (Bioorg Med Chem Lett, 2016).

One assay concerns the target CDK2/Cyclin A2 (Homo sapiens, UniProt P24941). The assay can be described thus: Inhibition of recombinant human CDK2/cyclin A2 using fluoresceinyl-Ahx-Pro-Val-Lys-Arg-Arg-Leu-Phe-Gly as substrate incubated for 45 mins by fluorescence polarization assay. Format: protein-complex assay. (In general: In fluorescence polarisation assays a small probe gives low polarisation when free and higher when bound to something large.)

Assay [1] has as its target Cyclin-dependent kinase 4/cyclin D1 (Homo sapiens, UniProt P24385). The assay can be described thus: Inhibition of recombinant human CDK4/cyclin D1 using fluoresceinyl-AhxPro-Val-Lys-Arg-Arg-Leu-(3ClPhe)-Gly as substrate incubated for 45 mins by fluorescence polarization assay. Format: protein-complex assay.
A further assay has as its system U2OS. The experiment in a line: Antiproliferative activity against human U2OS cells incubated for 72 hrs by MTT assay. Format: functional, cell-based. (Formazan colour is commonly taken as a measure of viable cells.)
Assay [2] can be described thus: Antiproliferative activity against human DU145 cells incubated for 72 hrs by MTT assay. Format: functional, cell-based. The note with it: DU-145, 72 h.

Residues, ends and D or L forms follow the SMILES beside them.

Cyclin-dependent kinase 4/cyclin D1, sequence (P11802 whole entry): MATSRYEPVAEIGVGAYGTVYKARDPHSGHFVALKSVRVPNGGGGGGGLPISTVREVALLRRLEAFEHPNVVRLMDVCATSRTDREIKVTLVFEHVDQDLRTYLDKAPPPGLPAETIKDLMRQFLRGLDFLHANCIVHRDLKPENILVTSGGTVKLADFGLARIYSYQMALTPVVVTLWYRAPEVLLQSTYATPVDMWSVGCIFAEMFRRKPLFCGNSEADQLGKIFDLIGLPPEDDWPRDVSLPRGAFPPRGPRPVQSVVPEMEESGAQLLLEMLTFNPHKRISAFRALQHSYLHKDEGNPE
Cyclin-dependent kinase 4/cyclin D1, sequence (P24385 whole entry): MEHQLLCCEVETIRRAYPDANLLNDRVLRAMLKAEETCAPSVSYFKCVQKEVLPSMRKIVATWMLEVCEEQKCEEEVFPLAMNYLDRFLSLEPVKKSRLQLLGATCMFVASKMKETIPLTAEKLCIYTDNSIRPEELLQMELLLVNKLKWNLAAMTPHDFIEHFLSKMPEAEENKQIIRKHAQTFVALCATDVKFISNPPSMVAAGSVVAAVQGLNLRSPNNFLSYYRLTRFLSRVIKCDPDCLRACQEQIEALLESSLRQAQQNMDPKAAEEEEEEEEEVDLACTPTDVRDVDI

As usually defined, the IC50 is the concentration needed to halve the response being measured. Regarding `CC(C)CC(CC(=O)NC(Cc1ccsc1)C(N)=O)NC(=O)[C@H](CCCNC(=N)N)NC(=O)c1cc(OC2CCNCC2)cc(OC2CCNCC2)c1` (stereo partly drawn), the IC50 on CDK2/Cyclin A2 is above 30 µM.

`CC(C)CC(CC(=O)N(C)[C@@H](Cc1ccccc1)C(N)=O)NC(=O)[C@H](CCCNC(=N)N)NC(=O)c1ccc(CN2CCN(C3CCN(C)CC3)CC2)cc1` (stereo partly drawn): the IC50 in assay [1] is 48.9 µM; at CDK2/Cyclin A2, 8.32 µM.

As to `CCOc1cc(C(=O)N[C@@H](CCCNC(=N)N)C(=O)NC(CC(=O)N(C)[C@@H](Cc2ccccc2)C(N)=O)CC(C)C)ccc1CN1CCNCC1` (stereo partly drawn), the IC50 was found to be 18.6 µM in assay [1] and 22.6 µM on CDK2/Cyclin A2.

Turning to `CCCN1CCN(Cc2ccc(C(=O)N[C@@H](CCCNC(=N)N)C(=O)NC(CC(=O)NC(Cc3ccsc3)C(N)=O)CC(C)C)cc2)CC1` (stereo partly drawn), the results for the IC50 (in assay [1]; at CDK2/Cyclin A2) were 8.52 µM and 31.3 µM, respectively.

For `CC(C)C[C@H](NC(=O)[C@H](CCCNC(=N)N)NC(=O)c1ccc(CNC(=N)N)cc1)C(=O)N[C@@H](CC(N)=O)C(=O)N1CCC[C@@H]1C(=O)N[C@H](Cc1ccccc1)C(=O)N[C@@H](Cc1ccccc1)C(=O)O`, the results for the half-maximal inhibitory concentration (IC50) (in assay [1]; at CDK2/Cyclin A2) were 15.3 µM and 0.69 µM, respectively.

Take `CC(C)CC(CC(=O)NC(Cc1ccsc1)C(N)=O)NC(=O)[C@H](CCCNC(=N)N)NC(=O)c1ccc(CN(C)C2CCNCC2)cc1` (stereo partly drawn): at CDK2/Cyclin A2, the IC50 was above 50 µM.

In the case of `CC(C)CC(CC(=O)N(C)[C@@H](Cc1ccccc1)C(N)=O)NC(=O)[C@H](CCCNC(=N)N)NC(=O)c1ccc(CN2CCNC[C@@H]2C)cc1` (stereo partly drawn), the IC50 with U2OS is 229 µM; in assay [1], above 100 µM; in assay [2], 204 µM; at CDK2/Cyclin A2, 13.4 µM.

Consider `CCN1CCN(Cc2ccc(C(=O)N[C@@H](CCCNC(=N)N)C(=O)NC(CC(=O)NC(Cc3ccsc3)C(N)=O)CC(C)C)cc2)CC1` (stereo partly drawn), for which the IC50 in assay [1] came out at 74.3 µM; at CDK2/Cyclin A2, 17.4 µM.

In the case of `CC(C)CC(CC(=O)N(C)[C@@H](Cc1ccccc1)C(N)=O)NC(=O)[C@H](CCCNC(=N)N)NC(=O)c1ccc(CN2CCNCC2)c(O)c1` (stereo partly drawn), the 50% inhibitory concentration (IC50) worked out at 11.8 µM in assay [1] and 7.42 µM at CDK2/Cyclin A2.

On to `CC(C)CC(CC(=O)NC(Cc1ccsc1)C(N)=O)NC(=O)[C@H](CCCNC(=N)N)NC(=O)c1ccc(C=C2CCN(C)CC2)cc1` (stereo partly drawn), for which the values for the IC50 (in assay [1]; at CDK2/Cyclin A2) were 69.9 µM and 26 µM, respectively.

For the compound `CC(C)C[C@H](NC(=O)[C@H](CCCNC(=N)N)NC(=O)c1ccc(CN2CCNCC2)cc1)C(=O)N[C@@H](CC(N)=O)C(=O)N1CCC[C@@H]1C(=O)N[C@H](Cc1ccccc1)C(=O)N[C@@H](Cc1ccccc1)C(=O)O`, the IC50 in assay [1] was found to be 12.9 µM; at CDK2/Cyclin A2, 5.3 µM.

Consider `CCN1CCN(Cc2ccc(C(=O)N[C@@H](CCCNC(=N)N)C(=O)NC(CC(=O)NC(Cc3ccsc3)C(N)=O)CC(C)C)cc2)[C@@H](C)C1` (stereo partly drawn), for which the IC50 in assay [1] amounted to 45.6 µM; on CDK2/Cyclin A2, 6.78 µM.

Turning to `CC(C)CC(CC(=O)N(C)[C@@H](Cc1ccccc1)C(N)=O)NC(=O)[C@H](CCCNC(=N)N)NC(=O)c1ccc(CN2CCNC[C@H]2C)cc1` (stereo partly drawn), the results for the IC50 (in assay [1]; on CDK2/Cyclin A2) were 45.4 µM and 22.3 µM, respectively.

As for `CC(C)CC(CC(=O)NC(Cc1ccsc1)C(N)=O)NC(=O)[C@H](CCCNC(=N)N)NC(=O)c1ccc(CC2CCNCC2)cc1` (stereo partly drawn), the 50% inhibitory concentration (IC50) on CDK2/Cyclin A2 is above 30 µM.

For the compound `CC(C)CC(CC(=O)NC(Cc1ccsc1)C(N)=O)NC(=O)[C@H](CCCNC(=N)N)NC(=O)c1ccc(C=C2CCNCC2)cc1` (stereo partly drawn), the IC50 was above 100 µM in assay [1] and 9.16 µM at CDK2/Cyclin A2.

For the compound `CC(C)CC(CC(=O)N(C)[C@@H](Cc1ccccc1)C(N)=O)NC(=O)[C@H](CCCNC(=N)N)NC(=O)c1ccc(OC2CCNCC2)cc1` (stereo partly drawn), the values for the IC50 (in assay [1]; on CDK2/Cyclin A2) were 31 µM and 40.4 µM, respectively.

In the case of `CC(C)CC(CC(=O)NC(Cc1ccsc1)C(N)=O)NC(=O)[C@H](CCCNC(=N)N)NC(=O)c1ccc(CN(C)C2CCCNC2)cc1` (stereo partly drawn), the IC50 with U2OS turned out to be 153 µM; at CDK2/Cyclin A2 it was 31 µM.

Turning to `CCCN1CCN(Cc2ccc(C(=O)N[C@@H](CCCNC(=N)N)C(=O)NC(CC(=O)NC(Cc3ccsc3)C(N)=O)CC(C)C)cc2)[C@@H](C)C1` (stereo partly drawn), the IC50 worked out at 9.36 µM in assay [1] and 22.4 µM on CDK2/Cyclin A2.

For `CC(C)CC(CC(=O)NC(Cc1ccsc1)C(N)=O)NC(=O)[C@H](CCCNC(=N)N)NC(=O)c1ccc(CN2CCNC[C@@H]2C)c(O)c1` (stereo partly drawn), the IC50 at CDK2/Cyclin A2 turned out to be 13.1 µM.

For `CC(C)CC(CC(=O)NC(Cc1ccsc1)C(N)=O)NC(=O)[C@H](CCCNC(=N)N)NC(=O)c1ccc(CNC2CCNCC2)cc1` (stereo partly drawn), the IC50 on CDK2/Cyclin A2 is above 100 µM.

For `CCOc1cc(C(=O)N[C@@H](CCCNC(=N)N)C(=O)N[C@@H](CC(C)C)C(=O)N[C@H](C(=O)N[C@@H](Cc2ccccc2)C(=O)O)[C@@H](C)CC)ccc1CN1CCNCC1` (HELM PEPTIDE1{[CCOc1cc(C(=O)[*:2])ccc1CN1CCNCC1].R.L.I.F}$$$$V2.0), the IC50 stood at 5.14 µM in assay [1] and 5.95 µM at CDK2/Cyclin A2.

As for `CC[C@H](C)[C@H](NC(=O)[C@H](CC(C)C)NC(=O)[C@H](CCCNC(=N)N)NC(=O)c1ccc(CN2CCN(C)CC2)cc1)C(=O)N[C@@H](Cc1ccccc1)C(=O)O` (HELM PEPTIDE1{[CN1CCN(Cc2ccc(C(=O)[*:2])cc2)CC1].R.L.I.F}$$$$V2.0), the 50% inhibitory concentration (IC50) was found to be 11.3 µM in assay [1] and 7.92 µM on CDK2/Cyclin A2.

For `CC[C@H](C)[C@H](NC(=O)[C@H](CC(C)C)NC(=O)[C@H](CCCNC(=N)N)NC(=O)c1ccc(CN2CCNCC2)c(O)c1)C(=O)N[C@@H](Cc1ccccc1)C(=O)O` (HELM PEPTIDE1{[O=C(c1ccc(CN2CCNCC2)c(O)c1)[*:2]].R.L.I.F}$$$$V2.0), the IC50 in assay [1] turned out to be 10.4 µM; on CDK2/Cyclin A2 it was 4.56 µM.

As to `CC[C@H](C)[C@H](NC(=O)[C@H](CC(C)C)NC(=O)[C@H](C)NC(=O)c1ccc(CN2CCNCC2)cc1)C(=O)N[C@@H](Cc1ccccc1)C(=O)O` (HELM PEPTIDE1{[O=C(c1ccc(CN2CCNCC2)cc1)[*:2]].A.L.I.F}$$$$V2.0), the IC50 in assay [1] is 51.5 µM; on CDK2/Cyclin A2, above 100 µM.

For the compound `CC[C@H](C)[C@H](NC(=O)[C@H](CC(C)C)NC(=O)[C@H](CCCNC(=N)N)NC(=O)c1ccc(CN2CCNCC2)cc1)C(=O)N[C@@H](Cc1ccccc1)C(=O)O` (HELM PEPTIDE1{[O=C(c1ccc(CN2CCNCC2)cc1)[*:2]].R.L.I.F}$$$$V2.0), the values for the half-inhibitory concentration (IC50) (in assay [1]; on CDK2/Cyclin A2) were 11.7 µM and 12.9 µM, respectively.

`CC[C@H](C)[C@H](NC(=O)[C@H](CC(C)C)NC(=O)[C@H](CCCNC(=N)N)NC(=O)c1ccc(N2CCNCC2)cc1)C(=O)N[C@@H](Cc1ccccc1)C(=O)O` (HELM PEPTIDE1{[O=C(c1ccc(N2CCNCC2)cc1)[*:2]].R.L.I.F}$$$$V2.0): in assay [1], the IC50 amounted to 23.8 µM.
